From PubChem BioAssay AID330 (DTP/NCI, 2004)
Several values for one entry are separate records, joined by “and”; a condition that tells them apart may be missing. Identical values can stand only once. Toxic doses and inconclusive results are not listed.

Tested on: P388 leukemia ip, CD2F1 mice, survival T/C
Assay: NCI In Vivo Anticancer Drug Screen. Data for tumor model P388 Leukemia (intraperitoneal) in CD2F1 (CDF1) mice
Details: endpoint: median survival time, higher = longer survival
Method in brief: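 Mice carrying the transplanted tumor received test compound or vehicle. Survival was recorded in each group, and the value is the treated-group measurement divided by that of the vehicle-treated control group.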

[1] = dose: 50.0 mg/kg/injection, schedule: Q01DX009 (ip), vehicle: Klucel (hydroxypropylcellulose) (HPC)
[2] = dose: 100.0 mg/kg/injection, schedule: Q01DX009 (ip), vehicle: Klucel (hydroxypropylcellulose) (HPC)
[3] = dose: 200.0 mg/kg/injection, schedule: Q01DX009 (ip), vehicle: Klucel (hydroxypropylcellulose) (HPC)
[4] = dose: 50.0 mg/kg/injection, schedule: Q01DX005 (ip), vehicle: Klucel (hydroxypropylcellulose) (HPC)
[5] = dose: 100.0 mg/kg/injection, schedule: Q01DX005 (ip), vehicle: Klucel (hydroxypropylcellulose) (HPC)
[6] = dose: 200.0 mg/kg/injection, schedule: Q01DX005 (ip), vehicle: Klucel (hydroxypropylcellulose) (HPC)
[7] = dose: 50.0 mg/kg/injection, schedule: Q01DX009 (ip), vehicle: suspension in saline
[8] = dose: 50.0 mg/kg/injection, schedule: Q01DX009 (ip), vehicle: saline

For O=C1CCCCC1C1(O)C(=O)Nc2ccccc21 (stereo not given), the T/C (dose: 60.0 mg/kg/injection, schedule: Q01DX005 (ip), vehicle: saline) was 98 % of control, the T/C (dose: 120.0 mg/kg/injection, schedule: Q01DX005 (ip), vehicle: saline) was 89 % of control and the T/C (dose: 240.0 mg/kg/injection, schedule: Q01DX005 (ip), vehicle: saline) was 89 % of control.

For O=C(NNC(=O)C(Cl)Cl)c1ccccn1, the T/C [1] was 99 % of control, the T/C [2] was 101 % of control and the T/C [3] was 109 % of control.

For CCCC1=CC(C)(C)CC(C)=C1 (tested in a mixture with another compound), the T/C (dose: 50.0 mg/kg/injection, schedule: Q01DX009 (ip), vehicle: saline sonified) was 95 % of control, the T/C (dose: 100.0 mg/kg/injection, schedule: Q01DX009 (ip), vehicle: saline sonified) was 95 % of control and the T/C (dose: 200.0 mg/kg/injection, schedule: Q01DX009 (ip), vehicle: saline sonified) was 90 % of control.

With CCC(c1ccc(OCC(=O)N2CC2)cc1)C(CC)c1ccc(OCC(=O)N2CC2)cc1 (stereo not given) the T/C (dose: 100.0 mg/kg/injection, schedule: Q04DX003 (ip), vehicle: suspension in saline) was 99 % of control, the T/C (dose: 200.0 mg/kg/injection, schedule: Q04DX003 (ip), vehicle: suspension in saline) was 98 % of control and the T/C (dose: 400.0 mg/kg/injection, schedule: Q04DX003 (ip), vehicle: suspension in saline) was 100 % of control.

For N#C/C(=C/C=C/c1ccccc1)c1ccccc1, the T/C [4] was 109 % of control, the T/C [5] was 102 % of control and the T/C [6] was 104 % of control.

With COc1ccc(Cc2c3cc(OC)c(OC)cc3cc[n+]2CC(=O)c2ccc(Cl)cc2)cc1OC the T/C [4] was 105 % of control and the T/C [5] was 111 % of control.

For CCCCCCCCCCCC#CC(=O)O, the T/C (dose: 50.0 mg/kg/injection, schedule: Q01DX009 (ip), vehicle: saline with Tween-80) was 110 % of control, the T/C (dose: 100.0 mg/kg/injection, schedule: Q01DX009 (ip), vehicle: saline with Tween-80) was 102 % of control and the T/C (dose: 200.0 mg/kg/injection, schedule: Q01DX009 (ip), vehicle: saline with Tween-80) was 105 % of control.

With CCCCCCCCCCCN1CCS(=O)(=O)CC1 the T/C [1] was 100 % of control, the T/C [2] was 98 % of control and the T/C [3] was 94 % of control.

For COC(=O)/C=N/NS(=O)(=O)c1cccc(N)c1, the T/C (dose: 12.5 mg/kg/injection, schedule: Q01DX009 (ip), vehicle: water) was 99 % of control, the T/C (dose: 25.0 mg/kg/injection, schedule: Q01DX009 (ip), vehicle: water) was 107 % of control and the T/C (dose: 50.0 mg/kg/injection, schedule: Q01DX009 (ip), vehicle: water) was 92 % of control. For the same molecule, the T/C (dose: 100.0 mg/kg/injection, schedule: Q01DX009 (ip), vehicle: water) was 99 % of control and 102 % of control and the T/C (dose: 200.0 mg/kg/injection, schedule: Q01DX009 (ip), vehicle: water) was 98 % of control.

With COC(=O)C(CS)NC(=O)C(Cc1c[nH]c2ccccc12)NC(=O)OC(C)(C)C (stereo not given) the T/C (dose: 12.5 mg/kg/injection, schedule: Q01DX009 (ip), vehicle: other) was 88 % of control, the T/C (dose: 25.0 mg/kg/injection, schedule: Q01DX009 (ip), vehicle: other) was 103 % of control and the T/C (dose: 50.0 mg/kg/injection, schedule: Q01DX009 (ip), vehicle: other) was 100 % of control. The T/C (dose: 100.0 mg/kg/injection, schedule: Q01DX009 (ip), vehicle: other) was 99 % of control and the T/C (dose: 200.0 mg/kg/injection, schedule: Q01DX009 (ip), vehicle: other) was 103 % of control.

Clc1ccc(C2Oc3ccccc3-c3nc4ncccc4cc32)cc1 (stereo not given) was tested, and the T/C (dose: 25.0 mg/kg/injection, schedule: Q01DX005 (ip), vehicle: Klucel (hydroxypropylcellulose) (HPC)) was 86 % of control, the T/C [4] was 86 % of control and the T/C [5] was 88 % of control. The T/C [6] was 91 % of control.

With Cc1ccc(N(C(=O)c2ccc(Cl)cc2)C(=S)C#N)cc1 the T/C (dose: 60.0 mg/kg/injection, schedule: Q01DX005 (ip), vehicle: Klucel + Tween-80) was 89 % of control, the T/C (dose: 120.0 mg/kg/injection, schedule: Q01DX005 (ip), vehicle: Klucel + Tween-80) was 95 % of control and the T/C (dose: 240.0 mg/kg/injection, schedule: Q01DX005 (ip), vehicle: Klucel + Tween-80) was 103 % of control.

For COc1ccc(C2C(C(=O)NCc3ccccc3)=C(C)NC(C)=C2C(=O)NCc2ccccc2)cc1OC, the T/C (dose: 15.0 mg/kg/injection, schedule: Q01DX005 (ip), vehicle: Klucel (hydroxypropylcellulose) (HPC)) was 100 % of control, the T/C (dose: 30.0 mg/kg/injection, schedule: Q01DX005 (ip), vehicle: Klucel (hydroxypropylcellulose) (HPC)) was 100 % of control and the T/C (dose: 60.0 mg/kg/injection, schedule: Q01DX005 (ip), vehicle: Klucel (hydroxypropylcellulose) (HPC)) was 100 % of control and 88 % of control.

In the case of CCOC(=O)c1ccc(NN=NCCF)cc1, the T/C (dose: 6.25 mg/kg/injection, schedule: Q01DX005 (ip), vehicle: distilled water + Tween-80) was 160 % of control, the T/C (dose: 12.5 mg/kg/injection, schedule: Q01DX005 (ip), vehicle: distilled water + Tween-80) was 252 % of control and the T/C (dose: 25.0 mg/kg/injection, schedule: Q01DX005 (ip), vehicle: distilled water + Tween-80) was 256 % of control and 275 % of control.

With C=CC(c1ccccc1)c1cc2c(cc1OCC)OCO2 (stereo not given) the T/C [4] was 105 % of control, the T/C [5] was 100 % of control and the T/C [6] was 94 % of control.

CCCCCCCC(O)CCCCCCC was tested, and the T/C (dose: 100.0 mg/kg/injection, schedule: Q04DX003 (ip), vehicle: other) was 100 % of control, the T/C (dose: 200.0 mg/kg/injection, schedule: Q04DX003 (ip), vehicle: other) was 100 % of control and the T/C (dose: 400.0 mg/kg/injection, schedule: Q04DX003 (ip), vehicle: other) was 109 % of control.

With O=C(O)c1cc(Br)cc(Br)c1O.O=C(O)c1cc(Br)cc(Br)c1O.[Cu] the T/C (dose: 15.0 mg/kg/injection, schedule: Q01DX005 (ip), vehicle: saline with Tween-80) was 92 % of control, the T/C (dose: 30.0 mg/kg/injection, schedule: Q01DX005 (ip), vehicle: saline with Tween-80) was 94 % of control and the T/C (dose: 60.0 mg/kg/injection, schedule: Q01DX005 (ip), vehicle: saline with Tween-80) was 101 % of control and 92 % of control.

For COC(=O)c1ccc(SCC(=O)c2ccc([N+](=O)[O-])o2)cc1, the T/C [7] was 88 % of control and the T/C (dose: 100.0 mg/kg/injection, schedule: Q01DX009 (ip), vehicle: suspension in saline) was 97 % of control.

For C=C1CC/C=C(\C)C(=O)C[C@@H]2[C@@H]1CC2(C)C, the T/C (dose: 0.37 mg/kg/injection, schedule: Q01DX009 (ip), vehicle: saline + alcohol) was 106 % of control, the T/C (dose: 0.75 mg/kg/injection, schedule: Q01DX009 (ip), vehicle: saline + alcohol) was 108 % of control and the T/C (dose: 1.5 mg/kg/injection, schedule: Q01DX009 (ip), vehicle: saline + alcohol) was 106 % of control. The T/C (dose: 3.0 mg/kg/injection, schedule: Q01DX009 (ip), vehicle: saline + alcohol) was 94 % of control and the T/C (dose: 6.0 mg/kg/injection, schedule: Q01DX009 (ip), vehicle: saline + alcohol) was 98 % of control.

In the case of CCN(CC)CCOC(=O)c1ccc(N)cc1, the T/C [8] was 98 % of control and the T/C (dose: 100.0 mg/kg/injection, schedule: Q01DX009 (ip), vehicle: saline) was 100 % of control.

In the case of COS(=O)(=O)C(F)(F)F, the T/C (dose: 100.0 mg/kg/injection, schedule: Q01DX001 (ip), vehicle: saline) was 111 % of control, the T/C (dose: 200.0 mg/kg/injection, schedule: Q01DX001 (ip), vehicle: saline) was 111 % of control and the T/C (dose: 400.0 mg/kg/injection, schedule: Q01DX001 (ip), vehicle: saline) was 111 % of control.

For C=CC(C)(C)c1cc2cc3c(cc2oc1=O)OC1(C)CCC(C(C)(C)O)OC1C3 (stereo not given), the T/C (dose: 12.5 mg/kg/injection, schedule: Q01DX005 (ip), vehicle: saline with Tween-80) was 99 % of control, the T/C (dose: 25.0 mg/kg/injection, schedule: Q01DX005 (ip), vehicle: saline with Tween-80) was 99 % of control and the T/C (dose: 50.0 mg/kg/injection, schedule: Q01DX005 (ip), vehicle: saline with Tween-80) was 93 % of control. For the same molecule, the T/C (dose: 100.0 mg/kg/injection, schedule: Q01DX005 (ip), vehicle: saline with Tween-80) was 89 % of control.

In the case of COc1cc(N(CCCl)CCCl)c(OC)cc1C=Nc1cccc(Br)c1, the T/C (dose: 6.25 mg/kg/injection, schedule: Q01DX009 (ip), vehicle: saline) was 113 % of control, the T/C (dose: 12.5 mg/kg/injection, schedule: Q01DX009 (ip), vehicle: suspension in saline) was 116 % of control and the T/C (dose: 25.0 mg/kg/injection, schedule: Q01DX009 (ip), vehicle: saline) was 167 % of control. The T/C (dose: 25.0 mg/kg/injection, schedule: Q01DX009 (ip), vehicle: suspension in saline) was 124 % of control, the T/C [8] was 254 % of control and the T/C [7] was 150 % of control.

O=[N+]([O-])C(CO)CCC(CO)[N+](=O)[O-] (stereo not given) was tested, and the T/C (dose: 100.0 mg/kg/injection, schedule: Q04DX003 (ip), vehicle: Klucel (hydroxypropylcellulose) (HPC)) was 96 % of control, the T/C (dose: 200.0 mg/kg/injection, schedule: Q04DX003 (ip), vehicle: Klucel (hydroxypropylcellulose) (HPC)) was 98 % of control and the T/C (dose: 400.0 mg/kg/injection, schedule: Q04DX003 (ip), vehicle: Klucel (hydroxypropylcellulose) (HPC)) was 88 % of control.
